How the values were obtained:
[1] = target: T1, Xanthine dehydrogenase/oxidase (Homo sapiens, UniProt P47989); test: Inhibition of Xanthine oxidase (unknown origin)
[2] = target: T2, Xanthine dehydrogenase/oxidase (Bos taurus, UniProt P80457); test: Inhibition of bovine xanthine oxidase using xanthine as substrate by measuring uric acid formation measured 30 secs interval for 2 mins by spectrophotometric analysis
[3] = target: T2, Xanthine dehydrogenase/oxidase; test: Inhibition of bovine milk xanthine oxidase using xanthine as substrate preincubated for 30 mins followed by substrate addition by spectrophotometric analysis
[4] = target: T1, Xanthine dehydrogenase/oxidase; test: Inhibition of Xanthine oxidase (unknown origin) using xanthine as substrate preincubated for 30 mins followed by substrate addition by spectrophotometric analysis
[5] = target: T2, Xanthine dehydrogenase/oxidase; test: Inhibition of bovine serum Xanthine oxidase; assay type: cell-free
[6] = target: T1, Xanthine dehydrogenase/oxidase; test: Inhibition of human Xanthine oxidase

T2 sequence (P80457 whole entry): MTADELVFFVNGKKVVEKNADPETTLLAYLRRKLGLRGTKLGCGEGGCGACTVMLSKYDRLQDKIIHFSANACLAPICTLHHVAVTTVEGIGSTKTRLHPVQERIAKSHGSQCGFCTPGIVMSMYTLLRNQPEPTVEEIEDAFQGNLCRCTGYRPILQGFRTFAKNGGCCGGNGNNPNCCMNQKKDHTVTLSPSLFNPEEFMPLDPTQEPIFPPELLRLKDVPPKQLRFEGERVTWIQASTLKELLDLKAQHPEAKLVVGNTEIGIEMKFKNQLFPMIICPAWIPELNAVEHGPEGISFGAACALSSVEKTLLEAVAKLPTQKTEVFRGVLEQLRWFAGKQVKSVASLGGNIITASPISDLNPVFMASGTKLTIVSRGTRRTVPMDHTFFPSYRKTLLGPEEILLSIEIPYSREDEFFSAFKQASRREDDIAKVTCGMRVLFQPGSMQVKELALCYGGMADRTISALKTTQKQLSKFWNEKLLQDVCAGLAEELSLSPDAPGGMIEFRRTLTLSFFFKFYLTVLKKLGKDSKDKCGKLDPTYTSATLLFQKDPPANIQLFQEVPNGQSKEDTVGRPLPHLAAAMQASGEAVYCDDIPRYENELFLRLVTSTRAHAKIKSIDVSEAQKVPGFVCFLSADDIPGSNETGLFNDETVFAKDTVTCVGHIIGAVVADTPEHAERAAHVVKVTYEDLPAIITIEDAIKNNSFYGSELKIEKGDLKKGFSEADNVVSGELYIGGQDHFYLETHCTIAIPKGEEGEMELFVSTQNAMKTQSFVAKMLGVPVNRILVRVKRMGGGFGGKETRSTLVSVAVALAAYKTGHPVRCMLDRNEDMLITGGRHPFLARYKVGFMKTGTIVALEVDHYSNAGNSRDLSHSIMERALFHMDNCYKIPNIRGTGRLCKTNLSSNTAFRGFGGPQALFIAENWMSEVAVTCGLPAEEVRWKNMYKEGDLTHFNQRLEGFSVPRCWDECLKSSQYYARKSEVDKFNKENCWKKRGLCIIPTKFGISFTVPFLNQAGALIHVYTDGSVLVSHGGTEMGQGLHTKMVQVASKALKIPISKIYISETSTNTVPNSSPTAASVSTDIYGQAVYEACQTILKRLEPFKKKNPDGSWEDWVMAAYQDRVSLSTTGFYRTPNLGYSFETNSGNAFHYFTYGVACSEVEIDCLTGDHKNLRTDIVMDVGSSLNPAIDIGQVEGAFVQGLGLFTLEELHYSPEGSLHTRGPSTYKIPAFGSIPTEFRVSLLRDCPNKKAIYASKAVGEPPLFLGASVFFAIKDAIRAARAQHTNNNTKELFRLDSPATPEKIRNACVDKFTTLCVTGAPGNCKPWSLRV
T1 sequence (P47989 whole entry): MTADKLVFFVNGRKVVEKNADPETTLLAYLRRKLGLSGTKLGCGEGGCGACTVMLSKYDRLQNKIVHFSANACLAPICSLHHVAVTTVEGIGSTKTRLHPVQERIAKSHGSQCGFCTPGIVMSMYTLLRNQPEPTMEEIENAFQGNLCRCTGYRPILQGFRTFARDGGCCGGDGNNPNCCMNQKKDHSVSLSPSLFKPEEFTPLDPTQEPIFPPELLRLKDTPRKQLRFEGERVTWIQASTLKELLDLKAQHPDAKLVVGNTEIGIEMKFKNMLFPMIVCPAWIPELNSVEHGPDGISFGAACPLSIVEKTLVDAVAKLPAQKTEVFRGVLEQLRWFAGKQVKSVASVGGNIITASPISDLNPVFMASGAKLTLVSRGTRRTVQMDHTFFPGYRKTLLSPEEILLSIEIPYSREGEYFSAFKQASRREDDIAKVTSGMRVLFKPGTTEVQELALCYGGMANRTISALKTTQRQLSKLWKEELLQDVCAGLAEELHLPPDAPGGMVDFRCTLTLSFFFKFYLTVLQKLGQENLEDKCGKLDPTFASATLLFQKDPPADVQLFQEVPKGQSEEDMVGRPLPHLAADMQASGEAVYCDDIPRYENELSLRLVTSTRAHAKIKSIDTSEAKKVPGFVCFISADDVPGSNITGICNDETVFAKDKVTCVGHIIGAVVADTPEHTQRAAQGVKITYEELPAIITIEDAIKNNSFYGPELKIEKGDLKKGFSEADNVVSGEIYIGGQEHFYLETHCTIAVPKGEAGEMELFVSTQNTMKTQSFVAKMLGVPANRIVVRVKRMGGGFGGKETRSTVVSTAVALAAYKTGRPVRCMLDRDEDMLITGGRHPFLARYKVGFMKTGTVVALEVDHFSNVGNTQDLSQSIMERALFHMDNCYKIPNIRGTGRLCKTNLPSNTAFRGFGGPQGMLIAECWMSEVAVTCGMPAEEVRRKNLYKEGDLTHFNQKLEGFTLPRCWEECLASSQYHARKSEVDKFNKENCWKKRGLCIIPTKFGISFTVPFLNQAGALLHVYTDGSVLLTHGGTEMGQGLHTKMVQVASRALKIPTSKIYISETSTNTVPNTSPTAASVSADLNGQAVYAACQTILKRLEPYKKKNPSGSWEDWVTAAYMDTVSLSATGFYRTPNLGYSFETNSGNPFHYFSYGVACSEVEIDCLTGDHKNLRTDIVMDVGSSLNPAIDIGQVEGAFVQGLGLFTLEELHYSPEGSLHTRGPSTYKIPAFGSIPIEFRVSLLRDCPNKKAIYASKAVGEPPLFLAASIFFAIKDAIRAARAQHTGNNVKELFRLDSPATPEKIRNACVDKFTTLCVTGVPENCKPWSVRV

SMILES	IC50 [1] [nM]	further results
Cc1c(/N=C/c2ccc(C(=O)Nc3nc4ccc(S(C)(=O)=O)cc4s3)cc2)c(=O)n(-c2ccccc2)n1C	2220	
COc1ccc2c(c1)C(=O)C(=O)N2CCn1cc(COc2cc(=O)oc3ccccc23)nn1		IC50 [2]: 6500 nM
O=c1[nH]c(-c2ccc(OCC3CCCCC3)c(-n3cnnn3)c2)no1	121	
O=c1cc(O)cc(/C=C/c2ccc(O)c(O)c2)o1 [HISPIDIN]		IC50 [3]: 39700 nM
OCc1nnn(Cc2cccc(Br)c2)c1CO	710	
COc1cc2ccc(C(=O)NCCCCc3ccc(O)c(O)c3)cc2cc1OC	13100	
C=Cc1ccc(C[n+]2cn(Cc3ccc(SC)cc3)c3ccccc32)cc1	590	
O=C1CCC(Nc2nc3cc(C(=O)Nc4cc(O)c(O)c(O)c4)ccc3n2Cc2ccc(O)cc2)C(=O)N1 (stereo unspecified)	18400	
C[C@@H]1O[C@@H](OC[C@H]2O[C@@H](Oc3c(-c4ccc(O)c(O)c4)oc4cc(O)cc(O)c4/c3=N\Nc3ccccc3)[C@H](O)[C@@H](O)[C@@H]2O)[C@H](O)[C@H](O)[C@H]1O	4870	
Nc1ccc(O)c(/N=N/c2ncc(-n3cc4c(=O)ncnc-4[nH]3)[nH]2)c1		IC50 [4]: 600 nM
N#Cc1cc[n+](Cc2ccc(-c3ccc(C[n+]4ccc(C#N)c(C(=O)O)c4)cc3)cc2)cc1C(=O)O		IC50 [5]: 394 nM
COc1ccc([C@@H]2C/C(=N\c3ccc([N+](=O)[O-])cc3Cl)c3c(O)cc(O[C@H]4O[C@@H](O[C@H]5O[C@@H](C)[C@H](O)[C@@H](O)[C@H]5O)[C@H](O)[C@@H](O)[C@@H]4O)cc3O2)cc1O		IC50 [6]: 263 nM
O=[N+]([O-])c1ccc(-c2cnc(-c3ccc(Br)cc3)s2)cc1	100	
Oc1ccc(/C=C/c2cc(O)cc3oc(-c4ccc(O)cc4)c(-c4cc(O)cc(O)c4)c23)cc1	12300	
COc1ccc(C(=O)/C=C/c2ccc(O)cc2)c(OC)c1	121	
CCn1c(O)c(C(c2ccc(Br)cc2)c2c(O)n(CC)c(=S)n(CC)c2=O)c(=O)n(CC)c1=S	1790	

From ChEMBL document CHEMBL5576085, “Heterocyclic compounds as xanthine oxidase inhibitors for the management of hyperuricemia: synthetic strategies, structure-activity relationship and molecular docking studies (2018-2024)” (RSC Med Chem, 2024)
